Article PMC4512654 (Analytical biochemistry, 2014)

Key:
[1] = test system: FXIIIa; details: coupled uv/vis assay, derived earlier; cited from earlier work
[2] = molecular target: T1, Activated Factor XIII (FXIIIa) (Homo sapiens, UniProt P00488); format: biochemical
T1 sequence (P00488 39-732 limits assumed): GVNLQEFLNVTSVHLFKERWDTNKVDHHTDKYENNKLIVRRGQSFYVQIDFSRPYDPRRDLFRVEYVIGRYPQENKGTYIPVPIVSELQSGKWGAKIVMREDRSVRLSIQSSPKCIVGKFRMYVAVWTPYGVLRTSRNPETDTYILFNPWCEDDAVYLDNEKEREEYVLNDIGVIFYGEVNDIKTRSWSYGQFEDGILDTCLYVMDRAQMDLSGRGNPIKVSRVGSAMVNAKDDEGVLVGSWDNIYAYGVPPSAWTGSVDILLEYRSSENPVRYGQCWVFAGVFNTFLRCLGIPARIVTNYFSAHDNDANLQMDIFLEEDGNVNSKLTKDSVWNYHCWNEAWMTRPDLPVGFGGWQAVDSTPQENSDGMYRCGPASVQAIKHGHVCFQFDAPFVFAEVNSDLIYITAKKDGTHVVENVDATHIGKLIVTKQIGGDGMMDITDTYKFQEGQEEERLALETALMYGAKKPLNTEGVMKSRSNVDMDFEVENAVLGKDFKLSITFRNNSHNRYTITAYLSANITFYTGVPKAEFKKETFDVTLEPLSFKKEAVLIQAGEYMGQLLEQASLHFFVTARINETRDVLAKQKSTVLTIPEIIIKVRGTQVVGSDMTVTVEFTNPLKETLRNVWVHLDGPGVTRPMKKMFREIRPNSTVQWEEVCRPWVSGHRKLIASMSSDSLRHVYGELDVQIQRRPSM

Sequence	Km [1] [µM]	other results
NQEKVSPLTLLKLGN [α2AP (1–15) Q4K]	426 ± 93	
SGDQRQVDLIPKKAT [S. Aureus Fnb A (100–114)]		Km better than S. Aureus Fnb A (100–110) ([2]; P < 0.05): almost two-fold better
NQEQVSPLTLLKLGN [α2AP (1–15)]	459 ± 50	
FQSGQVLAALPRTSR [TAFI (1–15)]		Km weaker than α2AP (1–15) K12R and S. Aureus Fnb A (100–114) [2]: more than 5 fold
